According to patent US20260001928A1 (CORTERIA PHARMACEUTICALS, priority 2022, published 2026):
pEC50: −log10 of the molar value. *1 amine or outer side, *2 acyl side, *3 side chain or, on linkers, in order; H or OH if unused. Where a SMILES comes first, the peptide text is derived from it. Side-chain parts run from the residue outwards. [ ]: non-standard residue; d: D form. The star is where a group is joined. C18 diacid = O=C(O)CCCCCCCCCCCCCCCCC(=O)*; C16 diacid = O=C(O)CCCCCCCCCCCCCCC(=O)*; γGlu = O=C(O)[C@H](CCC(=O)[*:2])N[*:1]; NMeI = CC[C@H](C)[C@H](NC)C(=O)O; αMeL = CC(C)C[C@](C)(N)C(=O)O; Api = NC1(C(=O)O)CCNCC1; Abu = CC[C@H](N)C(=O)O; Pentanoyl = CCCCC(=O)*; AEEA = NCCOCCOCC(=O)O; Aib = CC(C)(N)C(=O)O

Tests used:
[1] = biological target: T1, human CRF2a receptor (Homo sapiens, UniProt Q13324); assay: Activity at human CRF2a receptor, cAMP functional assay in TeloHEAC cells; assay type: cell-based; conditions: TeloHEAC cells stably expressing human CRF2a receptor, relative to urocortin 2 (100 nM = 100%)
T1 construct: expressed in transfected cells; host or cells: TeloHEAC cells
T1 sequence (Q13324 1-411): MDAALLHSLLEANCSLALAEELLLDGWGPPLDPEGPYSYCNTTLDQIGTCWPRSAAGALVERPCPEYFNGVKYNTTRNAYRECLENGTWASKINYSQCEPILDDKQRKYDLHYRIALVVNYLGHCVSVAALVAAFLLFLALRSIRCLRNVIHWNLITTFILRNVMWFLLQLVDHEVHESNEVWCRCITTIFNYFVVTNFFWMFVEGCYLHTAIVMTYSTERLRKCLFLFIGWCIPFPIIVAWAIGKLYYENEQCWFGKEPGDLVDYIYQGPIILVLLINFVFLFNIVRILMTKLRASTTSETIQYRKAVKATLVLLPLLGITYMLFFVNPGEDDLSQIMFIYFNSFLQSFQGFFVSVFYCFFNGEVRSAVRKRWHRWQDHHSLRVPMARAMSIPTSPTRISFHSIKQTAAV
Method in brief: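 TeloHEAC cells stably expressing human CRF2a (10000 cells/well, suspended in HBSS/20 mM HEPES with 2 mM IBMX) were exposed to compounds for 30 min at 37 °C. cAMP was read as the 665/620 nm fluorescence ratio after 1 h at room temperature. EC50 was derived relative to 100 nM urocortin 2, set as 100%.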

[2] = biological target: T2, CFR1R receptor (Homo sapiens, UniProt P34998); assay: Activity at anti-target CFR1R receptor, cAMP assay in CRF1R-overexpression CHO-K1 cells; assay type: cell-based; conditions: 100% = Sauvagine at 100 nM; for pEC50: cAMP
T2 construct: host or cells: CHO-K1 (clone 2)
T2 sequence (P34998 24-415): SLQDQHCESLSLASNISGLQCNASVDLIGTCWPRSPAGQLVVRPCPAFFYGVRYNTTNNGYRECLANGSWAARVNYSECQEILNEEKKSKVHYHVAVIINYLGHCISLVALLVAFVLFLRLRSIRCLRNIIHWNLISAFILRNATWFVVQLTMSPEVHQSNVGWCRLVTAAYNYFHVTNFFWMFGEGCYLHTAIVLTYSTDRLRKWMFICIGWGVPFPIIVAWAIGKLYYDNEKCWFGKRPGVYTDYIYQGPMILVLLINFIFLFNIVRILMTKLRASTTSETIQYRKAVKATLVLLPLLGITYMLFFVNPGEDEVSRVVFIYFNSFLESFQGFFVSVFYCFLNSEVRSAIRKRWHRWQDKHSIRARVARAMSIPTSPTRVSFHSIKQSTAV
Method in brief: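 Uses frozen stocks of CHO-K1 clone 2 cells overexpressing human CRF1R, plated at 4000 cells/well final, with cAMP measured by the same protocol as the TeloHAEC line. Full-activation control: 100 nM Sauvagine.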

Structure (SMILES)	pEC50 [1]	Emax (% I) [2]	pEC50 [2]
CC[C@H](C)[C@H](NC)C(=O)N[C@H](C(=O)N[C@@H](CC(C)C)C(=O)N[C@@H](CO)C(=O)N[C@@H](CC(C)C)C(=O)N[C@@H](CC(=O)O)C(=O)N[C@@H](C(=O)N1CCC[C@H]1C(=O)N[C@H](C(=O)N[C@@H](CCCCN)C(=O)N[C@@](C)(CC(C)C)C(=O)N[C@@H](CCCCNC(=O)CC[C@H](NC(=O)CCCCCCCCCCCCCCC(=O)O)C(=O)O)C(=O)N[C@@H](CCCCN)C(=O)N[C@H](C(=O)N[C@@H](CC(C)C)C(=O)N[C@@H](CC(C)C)C(=O)N[C@@H](CCC(=O)O)C(=O)N[C@@H](CCC(N)=O)C(=O)N[C@@H](CCC(=O)O)C(=O)N[C@@H](CCCCN)C(=O)N[C@@H](CCC(N)=O)C(=O)N[C@@H](CCCCN)C(=O)N[C@@H](CCCCN)C(=O)N[C@@H](CCC(N)=O)C(=O)N[C@@H](CCCNC(=N)N)C(=O)N[C@@H](CCC(=O)O)C(=O)N[C@@H](CCC(N)=O)C(=O)N[C@@H](C)C(=O)N[C@@H](CCC(=O)O)C(=O)N[C@H](C(=O)N[C@@H](CC(N)=O)C(=O)NC(C)(C)C(=O)N[C@@H](CCC(N)=O)C(=O)N[C@H](C(=O)N[C@@H](CC(C)C)C(=O)N[C@@H](C)C(=O)N[C@@H](CCC(N)=O)C(=O)N[C@H](C(N)=O)C(C)C)[C@@H](C)CC)[C@@H](C)O)[C@@H](C)CC)[C@@H](C)CC)C(C)C)C(C)C [compound 65] (H-[NMeI]VLSLD[dV]PIK[αMeL]K([γGlu-C16 diacid])KILLEQEKQKKQREQAETN[Aib]QILAQV-NH2)	10.00	10 % I	< 6.60
CC[C@H](C)[C@H](NC)C(=O)N[C@H](C(=O)N[C@@H](CC(C)C)C(=O)N[C@@H](CO)C(=O)N[C@@H](CC(C)C)C(=O)N[C@@H](CC(=O)O)C(=O)N[C@@H](C(=O)N1CCC[C@H]1C(=O)N[C@H](C(=O)N[C@@H](CCCCN)C(=O)N[C@@H](CC(C)C)C(=O)N[C@@H](CCCCNC(=O)CC[C@H](NC(=O)CCCCCCCCCCCCCCC(=O)O)C(=O)O)C(=O)N[C@@H](CCCCN)C(=O)N[C@H](C(=O)N[C@@H](CC(C)C)C(=O)N[C@@H](CC(C)C)C(=O)N[C@@H](CCC(=O)O)C(=O)N[C@@H](CCC(N)=O)C(=O)N[C@@H](CCC(=O)O)C(=O)N[C@@H](CCCCN)C(=O)N[C@@H](CCC(N)=O)C(=O)N[C@@H](CCCCN)C(=O)NC(C)(C)C(=O)N[C@@H](CCC(N)=O)C(=O)N[C@@H](CCCNC(=N)N)C(=O)N[C@@H](CCC(=O)O)C(=O)N[C@@H](CCC(N)=O)C(=O)N[C@@H](C)C(=O)N[C@@H](CCC(=O)O)C(=O)N[C@H](C(=O)N[C@@H](CC(N)=O)C(=O)NC1(C(=O)N[C@@H](CCC(N)=O)C(=O)N[C@H](C(=O)N[C@@H](CC(C)C)C(=O)N[C@@H](C)C(=O)N[C@@H](CCC(N)=O)C(=O)N[C@H](C(N)=O)C(C)C)[C@@H](C)CC)CCNCC1)[C@@H](C)O)[C@@H](C)CC)[C@@H](C)CC)C(C)C)C(C)C [compound 155] (H-[NMeI]VLSLD[dV]PIKLK([γGlu-C16 diacid])KILLEQEKQK[Aib]QREQAETN[Api]QILAQV-NH2)	9.29	26 % I	< 6.60
CC[C@H](C)[C@H](NC(C)=O)C(=O)N[C@H](C(=O)N[C@@H](CC(C)C)C(=O)N[C@@H](CO)C(=O)N[C@@H](CC(C)C)C(=O)N[C@@H](CC(=O)O)C(=O)N[C@@H](C(=O)N1CCC[C@H]1C(=O)N[C@H](C(=O)N[C@@H](CCCCN)C(=O)N[C@@](C)(CC(C)C)C(=O)N[C@@H](CCCCNC(=O)CC[C@H](NC(=O)CCCCCCCCCCCCCCC(=O)O)C(=O)O)C(=O)N[C@@H](CCCCN)C(=O)N[C@H](C(=O)N[C@@H](CC(C)C)C(=O)N[C@@H](CC(C)C)C(=O)N[C@@H](CCC(=O)O)C(=O)N[C@@H](CCC(N)=O)C(=O)N[C@@H](CCC(=O)O)C(=O)N[C@@H](CCCCN)C(=O)N[C@@H](CCC(N)=O)C(=O)N[C@@H](CCCCN)C(=O)N[C@@H](CCCCN)C(=O)N[C@@H](CCC(N)=O)C(=O)N[C@@H](CCCNC(=N)N)C(=O)N[C@@H](CCC(=O)O)C(=O)N[C@@H](CCC(N)=O)C(=O)N[C@@H](C)C(=O)N[C@@H](CCC(=O)O)C(=O)N[C@H](C(=O)N[C@@H](CC(=O)O)C(=O)N[C@@H](CCCCN)C(=O)N[C@@H](CCC(N)=O)C(=O)N[C@H](C(=O)N[C@@H](CC(C)C)C(=O)N[C@@H](C)C(=O)N[C@@H](CCC(N)=O)C(=O)N[C@H](C(N)=O)C(C)C)[C@@H](C)CC)[C@@H](C)O)[C@@H](C)CC)[C@@H](C)CC)C(C)C)C(C)C [compound 53] (Ac-IVLSLD[dV]PIK[αMeL]K([γGlu-C16 diacid])KILLEQEKQKKQREQAETDKQILAQV-NH2)	8.09	5 % I	< 6.60
CC[C@H](NC(=O)[C@H](CC(N)=O)NC(=O)[C@@H](NC(=O)[C@H](CCC(=O)O)NC(=O)[C@H](C)NC(=O)[C@H](CCC(N)=O)NC(=O)[C@H](CCC(=O)O)NC(=O)[C@H](CCCNC(=N)N)NC(=O)[C@H](CCC(N)=O)NC(=O)[C@H](CCCCN)NC(=O)[C@H](CCCCN)NC(=O)[C@H](CCC(N)=O)NC(=O)[C@H](CCCCN)NC(=O)[C@H](CCC(=O)O)NC(=O)[C@H](CCC(N)=O)NC(=O)[C@H](CCC(=O)O)NC(=O)[C@H](CC(C)C)NC(=O)[C@H](CC(C)C)NC(=O)[C@@H](NC(=O)[C@H](CCCCN)NC(=O)[C@H](CCCCNC(=O)CC[C@H](NC(=O)CCCCCCCCCCCCCCCCC(=O)O)C(=O)O)NC(=O)[C@H](CC(C)C)NC(=O)[C@H](CCCCN)NC(=O)[C@@H](NC(=O)[C@@H]1CCCN1C(=O)[C@H](NC(=O)[C@H](CC(=O)O)NC(=O)[C@H](CC(C)C)NC(=O)[C@H](CO)NC(=O)[C@H](CC(C)C)NC(=O)[C@@H](NC(=O)[C@@H](NC)[C@@H](C)CC)C(C)C)C(C)C)[C@@H](C)CC)[C@@H](C)CC)[C@@H](C)O)C(=O)N[C@@H](CCC(N)=O)C(=O)N[C@H](C(=O)N[C@@H](CC(C)C)C(=O)N[C@@H](C)C(=O)N[C@@H](CCC(N)=O)C(=O)N[C@H](C(N)=O)C(C)C)[C@@H](C)CC [compound 139] (H-[NMeI]VLSLD[dV]PIKLK([γGlu-C18 diacid])KILLEQEKQKKQREQAETN[Abu]QILAQV-NH2)	10.30	13 % I	< 6.60
CCCCC(=O)N[C@H](C(=O)N[C@@H](CC(C)C)C(=O)N[C@@H](CO)C(=O)N[C@@H](CC(C)C)C(=O)N[C@@H](CC(=O)O)C(=O)N[C@@H](C(=O)N1CCC[C@H]1C(=O)N[C@H](C(=O)N[C@@H](CCCCN)C(=O)N[C@@H](CC(C)C)C(=O)N[C@@H](CCCCNC(=O)COCCOCCNC(=O)COCCOCCNC(=O)CC[C@H](NC(=O)CCCCCCCCCCCCCCCCC(=O)O)C(=O)O)C(=O)N[C@@H](CCCCN)C(=O)N[C@H](C(=O)N[C@@H](CC(C)C)C(=O)N[C@@H](CC(C)C)C(=O)N[C@@H](CCC(=O)O)C(=O)N[C@@H](CCC(N)=O)C(=O)N[C@@H](CCC(=O)O)C(=O)N[C@@H](CCCCN)C(=O)N[C@@H](CCC(N)=O)C(=O)N[C@@H](CCCCN)C(=O)N[C@@H](CCCCN)C(=O)N[C@@H](CCC(N)=O)C(=O)N[C@@H](CCCNC(=N)N)C(=O)N[C@@H](CCC(=O)O)C(=O)N[C@@H](CCC(N)=O)C(=O)N[C@@H](C)C(=O)N[C@@H](CCC(=O)O)C(=O)N[C@H](C(=O)N[C@@H](CC(N)=O)C(=O)NC(C)(C)C(=O)N[C@@H](CCC(N)=O)C(=O)N[C@H](C(=O)N[C@@H](CC(C)C)C(=O)N[C@@H](C)C(=O)N[C@@H](CCC(N)=O)C(=O)N[C@H](C(N)=O)C(C)C)[C@@H](C)CC)[C@@H](C)O)[C@@H](C)CC)[C@@H](C)CC)C(C)C)C(C)C [compound 120] (Pentanoyl-VLSLD[dV]PIKLK([AEEA-AEEA-γGlu-C18 diacid])KILLEQEKQKKQREQAETN[Aib]QILAQV-NH2)	8.88	3 % I	< 6.60
